Laboratory results as given in US11999732B2, “P2X3 receptor antagonists” (RECORDATI INDUSTRIA CHIMICA E FARMACEUTICA SPA, priority 2018, dated 2024).
Where two headings read alike, the source gives them in different places.

Molecular target: T1, human P2X3 receptor (Homo sapiens, UniProt P56373)
T1 construct: expressed in transfected cells; host or cells: CHO-K1
T1 sequence (P56373 1-397): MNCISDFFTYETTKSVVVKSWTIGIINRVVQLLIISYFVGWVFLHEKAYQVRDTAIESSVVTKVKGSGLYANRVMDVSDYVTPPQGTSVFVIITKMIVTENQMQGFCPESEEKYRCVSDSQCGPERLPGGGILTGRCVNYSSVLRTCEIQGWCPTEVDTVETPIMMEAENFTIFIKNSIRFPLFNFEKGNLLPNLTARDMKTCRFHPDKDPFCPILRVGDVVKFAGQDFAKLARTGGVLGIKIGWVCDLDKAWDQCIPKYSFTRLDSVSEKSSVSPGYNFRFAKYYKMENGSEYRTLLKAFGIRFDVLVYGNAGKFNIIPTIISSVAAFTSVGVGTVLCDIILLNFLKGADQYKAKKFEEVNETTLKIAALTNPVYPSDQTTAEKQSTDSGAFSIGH
Experiment: Calcium luminescence (photoprotein) assay in CHO-K1 cells co-expressing human P2X3 receptor, α,β-Met-ATP stimulation, FLEXSTATION readout
Format: cell-based
Settings: human P2X3 receptor antagonist activity, CHO-K1 cells, α,β-Met-ATP, read-out: h-P2X3 IC50
Procedure: The assay for the human purinergic P2X3 receptor has been adapted to the internal screening instrumentation using the FLEXSTATION as reader and a photoprotein as luminescent readout. The assay consists of CHO-K1 cells recombinantly co-expressing the human P2rx3 receptor and a Ca^2+ sensitive photoprotein. Cells are maintained in DMEM F-12 (1:1) mixture (LONZA cat. no BE04-687F/U1) supplemented with 9 mL of 100 mM Sodium Pyruvate (LONZA cat. no BE13-115E), 29 mL of 7.5% Sodium Bicarbonate (LONZA cat. no: BE17-613E), 5.5 mL of 1 M Hepes (LONZA cat. no BE17-737E), 5 mL of 100× Penicillin/Streptomycin (LONZA cat. no DE17-602E) and 50 mL of Fetal Bovine Serum (Sigma cat. no F7524), 1 mg/mL G418 (Sigma cat. no G8168) and 5 µg/ml puromycin (Sigma cat. no P9620). Standard propagation conditions consist of seeding in a P75 flask twice a week, recovering about 20×10^6 cells, corresponding to about 80% confluency. Cells were seeded into black-walled clear bottom 96 well plates at a density of 40000 cells/well in a Tyrode's buffer (Standard Tyrode's buffer: in house solution, 130 mM NaCl, 5 mM KCl, 2 mM CaCl2, 5 mM NaHCO3, 1 mM MgCl2, 20 mM HEPES, pH 7.4). After 24 h the culture medium was replaced with 200 μL/well of coelenterazine in Tyrode's buffer (Coelenterazine: from BIOSYNTH (cat. no C-7001). 10 mM stock solution was prepared in DMSO and glutathione and stored at −20° C.). The plates were incubated for 4 hours at 37° C., and injected with 10 μL/well of test compounds at 25× concentration in Tyrode's buffer. After 4 minutes a second injection of 50 μL/well of 5× α,β-Met-ATP in Tyrode's buffer (α,β-Met-ATP: from Tocris (cat. no 3209), was dissolved at 100 mM in water and stored in aliquots at −20° C.) was performed and the signal of the emitted luminescence was recorded by FLEXSTATION III (Molecular Devices).
The inhibition curves of the tested compounds at cloned P2X3 receptor were determined by nonlinear regression analysis using software Prism 4.0 (Graphpad, San Diego, Calif.). The IC50 values and pseudo-Hill slope coefficients were estimated by the program.

IC50 (Table 6)	Compound	also measured
–	Cc1ccc(Cc2nn3c(CC4CCOCC4)nnc3c3ncc(N4CCOCC4)cc23)cc1 [Example 117, 6-(4-methylbenzyl)-8-(morpholin-4-yl)-3-(tetrahydro-2H-pyran-4-ylmethyl)pyrido[2,3-d][1,2,4]triazolo[4,3-b]pyridazine]	IC50 (Table 8): 197 nM
2040 nM	COc1ccc(CN2C(=O)N3C(=NCC3CC(C)C)c3ncc(N4CCOCC4)cc32)cc1 (stereo not drawn) [Example 38, 6-(4-methoxybenzyl)-3-(2-methylpropyl)-8-(morpholin-4-yl)-2,6-dihydroimidazo[1,2-c]pyrido[2,3-e]pyrimidin-5(3H)-one]	–
–	COc1ccc(Cn2c(=O)n3c(C(C)C)nnc3c3ncc(N4CCOCC4)cc32)cc1 [Example 97, 6-(4-methoxybenzyl)-8-(morpholin-4-yl)-3-(propan-2-yl)pyrido[2,3-e][1,2,4]triazolo[4,3-c]pyrimidin-5(6H)-one]	IC50 (Table 7): 394 nM
1140 nM	COc1ccc(CN2C(=O)N3CC(C(C)C)N=C3c3ncc(N4CCC(CO)CC4)cc32)cc1 (stereo not drawn) [Example 20]	–
–	CC(C)(C)c1nnc2c3ncc(N4CCOCC4)cc3n(Cc3ccc(Cl)cn3)c(=O)n12 [Example 173, 3-tert-butyl-6-[(5-chloropyridin-2-yl)methyl]-8-(morpholin-4-yl)pyrido[2,3-e][1,2,4]triazolo[4,3-c]pyrimidin-5(6H)-one]	IC50 (Table 9): 2.59 nM
–	COc1cc(Cn2c(=O)n3c(C)c(C)nc3c3ncc(N4CCC(OC)CC4)cc32)cc(OC)c1 [Example 85, 6-(3,5-dimethoxybenzyl)-8-(4-methoxypiperidin-1-yl)-2,3-dimethylimidazo[1,2-c]pyrido[2,3-e]pyrimidin-5(6H)-one]	IC50 (Table 7): 1300 nM
793 nM	COc1cc(CN2C(=O)N3C(=NCC3CC(C)C)c3ncc(N4CCOCC4)cc32)cc(OC)c1 (stereo not drawn) [Example 35, 6-(3,5-dimethoxybenzyl)-3-(2-methylpropyl)-8-(morpholin-4-yl)-2,6-dihydroimidazo[1,2-c]pyrido[2,3-e]pyrimidin-5(3H)-one]	–
–	Cc1c(C(C)C)nc2c3ncc(C(=O)NCCO)cc3n(Cc3ccc(Cl)cc3)c(=O)n12 [Example 95, 6-(4-chlorobenzyl)-n-(2-hydroxyethyl)-3-methyl-5-oxo-2-(propan-2-y1)-5,6-dihydroimidazo[1,2-c]pyrido[2,3-e]pyrimidine-8-carboxamide]	IC50 (Table 7): 2980 nM
–	O=c1n(Cc2ccc(Cl)cc2)c2cc(N3CCOCC3)cnc2c2nnc(CC3CCOCC3)n12 [Example 186, 6-(4-chlorobenzyl)-8-(morpholin-4-yl)-3-(tetrahydro-2H-pyran-4-ylmethyl)pyrido[2,3-e][1,2,4]triazolo[4,3-c]pyrimidin-5(6H)-one]	IC50 (Table 9): 289 nM
–	COc1cc(Cn2c(=O)n3cc(CC(C)C)nc3c3ncc(N4CCOCC4)cc32)cc(OC)c1 [Example 74, 6-(3,5-dimethoxybenzyl)-2-(2-methylpropyl)-8-(morpholin-4-yl)imidazo[1,2-c]pyrido[2,3-e]pyrimidin-5(6H)-one]	IC50 (Table 7): 416 nM
491 nM	COc1cc(CN2C(=O)N3C(=NCC3C3CCCCC3)c3ncc(N4CCOCC4)cc32)cc(OC)c1 (stereo not drawn) [Example 44, 3-cyclohexyl-6-(3,5-dimethoxybenzyl)-8-(morpholin-4-yl)-2,6-dihydroimidazo[1,2-c]pyrido[2,3-e]pyrimidin-5(3H)-one]	–
2230 nM	COC1CCN(c2cnc3c(c2)N(Cc2ccc(Cl)cc2)C(=O)N2CC(C(C)C)N=C32)CC1 (stereo not drawn) [Example 16, 6-(4-chlorobenzyl)-8-(4-methoxypiperidin-1-yl)-2-(propan-2-yl)-2,6-dihydroimidazo[1,2-c]pyrido[2,3-e]pyrimidin-5(3H)-one]	–
–	CCc1nc2c3ncc(NCC4COC4)cc3n(Cc3cc(OC)cc(OC)c3)c(=O)n2c1C [Example 76, 6-(3,5-dimethoxybenzyl)-2-ethyl-3-methyl-8-{[(oxetan-3-yl)methyl]amino}imidazo[1,2-c]pyrido[2,3-e]pyrimidin-5(6H)-one]	IC50 (Table 7): 381 nM
1050 nM	O=C1N2CC3(CCOCC3)N=C2c2ncc(N3CCOCC3)cc2N1Cc1ccc(Cl)cc1 [Example 40, 6-(4-chlorobenzyl)-8-(morpholin-4-yl)-2′,3′,5′,6′-tetrahydrospiro[imidazo[1,2-c]pyrido[2,3-e]pyrimidine-2,4′-pyran]-5(6H)-one]	–
–	CC(C)(C)c1nnc2c3ncc(N4CCC(N)CC4)cc3c(Cc3ccc(Cl)cc3)nn12 [Example 139, 1-[5-tert-butyl-8-(4-chlorobenzyl)-3,4,6,7,13-pentazatricyclo[7.4.0.02,6]trideca-1(9),2,4,7,10,12-hexaen-11-yl]piperidin-4-amine]	IC50 (Table 8): 379 nM
–	CCn1nccc1-c1nnc2c3ncc(N4CCOCC4)cc3n(Cc3ccc(Cl)cc3)c(=O)n12 [Example 107, 6-(4-chlorobenzyl)-3-(1-ethyl-1h-pyrazol-5-yl)-8-(morpholin-4-yl)pyrido[2,3-e][1,2,4]triazolo[4,3-c]pyrimidin-5(6H)-one]	IC50 (Table 7): 1320 nM
299 nM	CC(C)CCC1CN=C2c3ncc(N4CCOCC4)cc3N(Cc3ccc(Cl)cc3)C(=O)N21 (stereo not drawn) [Example 63, 6-(4-chlorobenzyl)-3-(3-methylbutyl)-8-(morpholin-4-yl)-2,6-dihydroimidazo[1,2-c]pyrido[2,3-e]pyrimidin-5(3H)-one]	–
–	COc1cc(Cn2c(=O)n3c(C)c(C(C)C)nc3c3ncc(NCC4COC4)cc32)cc(OC)c1 [Example 83, 6-(3,5-dimethoxybenzyl)-3-methyl-8-[(oxetan-3-ylmethyl)amino]-2-(propan-2-yl)imidazo[1,2-c]pyrido[2,3-e]pyrimidin-5(6H)-one]	IC50 (Table 7): 292 nM
–	COc1ccc(Cn2c(=O)n3c(C(C)(C)C)nnc3c3ncc(N)cc32)cc1 [Example 176, 8-amino-3-tert-butyl-6-(4-methoxybenzyl)pyrido[2,3-e][1,2,4]triazolo[4,3-c]pyrimidin-5(6H)-one]	IC50 (Table 9): 2570 nM
229 nM	CC(C)CC1CN=C2c3ncc(N4CCOCC4)cc3N(Cc3ccc(Cl)cc3)C(=O)N21 (stereo not drawn) [Example 31, 6-(4-chlorobenzyl)-3-(2-methylpropyl)-8-(morpholin-4-yl)-2,6-dihydroimidazo[1,2-c]pyrido[2,3-e]pyrimidin-5(3H)-one]	–
408 nM	COc1ccc(CN2C(=O)N3CC(CC(C)(C)C)N=C3c3ncc(N4CCOCC4)cc32)cc1 (stereo not drawn) [Example 34, 2-(2,2-dimethylpropyl)-6-(4-methoxybenzyl)-8-(morpholin-4-y1)-2,6-dihydroimidazo[1,2-c]pyrido[2,3-e]pyrimidin-5(3H)-one]	–
124 nM	COc1ccc(CN2C(=O)N3CC(C(C)(C)C)N=C3c3ncc(N4CCOCC4)cc32)cc1 (stereo not drawn) [Example 32, 2-tert-butyl-6-(4-methoxybenzyl)-8-(morpholin-4-yl)-2,6-dihydroimidazo[1,2-c]pyrido[2,3-e]pyrimidin-5(3H)-one]	–
143 nM	COc1cc(CN2C(=O)N3CC(CC(C)C)N=C3c3ncc(N4CCOCC4)cc32)cc(OC)c1 (stereo not drawn) [Example 22, 6-(3,5-dimethoxybenzyl)-2-(2-methylpropyl)-8-(morpholin-4-yl)-2,6-dihydroimidazo[1,2-c]pyrido[2,3-e]pyrimidin-5(3H)-one]	–

Compound	IC50 (Table 6)	also measured
COc1ccc(CN2C(=O)N3C(=NCC3COC(C)(C)C)c3ncc(N4CCOCC4)cc32)cc1 (stereo not drawn) [Example 67, 3-(tert-butoxymethyl)-6-(4-methoxybenzyl)-8-(morpholin-4-yl)-2,6-dihydroimidazo[1,2-c]pyrido[2,3-e]pyrimidin-5(3H)-one]	218 nM	–
